# Entries after “also recorded” stand apart in the source; their conditions may differ.
# Test system: patients with advanced myeloid malignancies
# Experiment: Phase 1 safety: adverse events (NCIC-CTCAE version 3.0)
# Format: in vivo, human
# Method: At screening/baseline, patients underwent a medical history, physical examination, vital sign assessment, ECOG PS assessment, electrocardiogram, and assessment of hematologic parameters and blood chemistry. Hematology/blood chemistry, physical examinations, and vital sign assessments were performed throughout treatment. Toxicity was assessed using the National Cancer Institute Common Terminology Criteria for Adverse Events (NCIC-CTCAE), version 3.0, with relationship to treatment assigned by the investigator and were recorded from the first dose of pacritinib until 30 days after the last dose. Bone marrow biopsy and/or aspirate samples were drawn at baseline, on day 1 of cycle 4 and cycle 10, as clinically indicated, and at the termination visit. Disease response and progression were determined using the relevant International Working Group (IWG) criteria.
# The efficacy-evaluable population included those patients with a baseline and corresponding follow-up value. The safety population included all enrolled patients who received ≥1 dose of pacritinib.
# [1] = phase 1, 500 mg QD cohort of seven
# [2] = phase 1, all patients n = 43, Grade 1/2
# [3] = phase 1, all patients n = 43, Grade 3/4
compound,measurement,setting,value
"C1=C/COCc2cc(ccc2OCCN2CCCC2)Nc2nccc(n2)-c2cccc(c2)COC/1 [pacritinib, 11-(2-pyrrolidin-1-yl-ethoxy)-14,19-dioxa-5,7,26-triaza-tetracyclo[19.3.1.1(2,6). 1(8,12)]heptacosa-1(25),2(26),3,5,8,10,12(27),16,21,23-decaene]",Treatment-emergent AE: Petechiae,"phase 1, 400 mg, n = 6",0 n (%)
same,Treatment-emergent AE: Pyrexia,"phase 1, 400 mg, n = 6",2 (33.3) n (%)
same,Treatment-emergent AE: Skin lesion,"phase 1, 400 mg, n = 6",0 n (%)
same,Treatment-emergent AE: Thrombocytopenia,"phase 1, 400 mg, n = 6",2 (33.3) n (%)
same,Treatment-emergent AE: Upper respiratory tract infection,"phase 1, 400 mg, n = 6",0 n (%)
same,Treatment-emergent AE: Vomiting,"phase 1, 400 mg, n = 6",3 (50.0) n (%)
same,Patients who discontinued treatment due to AEs,[1],two
same,Patients who experienced a serious AE,[1],three
same,Patients who required dose interruptions,[1],three
same,Patients who required dose reductions,[1],three
same,Treatment-emergent AE: Abdominal distension,"phase 1, 500 mg, n = 7",1 (14.3) n (%)
same,Treatment-emergent AE: Abdominal pain,"phase 1, 500 mg, n = 7",0 n (%)
same,Treatment-emergent AE: Anemia,"phase 1, 500 mg, n = 7",2 (28.6) n (%)
same,Treatment-emergent AE: Any AE,"phase 1, 500 mg, n = 7",7 (100.0) n (%)
same,Treatment-emergent AE: Asthenia,"phase 1, 500 mg, n = 7",1 (14.3) n (%)
same,Treatment-emergent AE: Back pain,"phase 1, 500 mg, n = 7",1 (14.3) n (%)
same,Treatment-emergent AE: Cardiac murmur,"phase 1, 500 mg, n = 7",1 (14.3) n (%)
same,Treatment-emergent AE: Chills,"phase 1, 500 mg, n = 7",1 (14.3) n (%)
same,Treatment-emergent AE: Constipation,"phase 1, 500 mg, n = 7",1 (14.3) n (%)
same,Treatment-emergent AE: Cough,"phase 1, 500 mg, n = 7",0 n (%)
same,Treatment-emergent AE: Decreased appetite,"phase 1, 500 mg, n = 7",0 n (%)
same,Treatment-emergent AE: Dehydration,"phase 1, 500 mg, n = 7",1 (14.3) n (%)
same,Treatment-emergent AE: Diarrhea,"phase 1, 500 mg, n = 7",7 (100.0) n (%)
same,Treatment-emergent AE: Dizziness,"phase 1, 500 mg, n = 7",1 (14.3) n (%)
same,Treatment-emergent AE: Dyspnea,"phase 1, 500 mg, n = 7",1 (14.3) n (%)
same,Treatment-emergent AE: Edema peripheral,"phase 1, 500 mg, n = 7",2 (28.6) n (%)
same,Treatment-emergent AE: Epistaxis,"phase 1, 500 mg, n = 7",0 n (%)
same,Treatment-emergent AE: Fatigue,"phase 1, 500 mg, n = 7",3 (42.9) n (%)
same,Treatment-emergent AE: Hyperbilirubinemia,"phase 1, 500 mg, n = 7",0 n (%)
same,Treatment-emergent AE: Hyperuricemia,"phase 1, 500 mg, n = 7",1 (14.3) n (%)
same,Treatment-emergent AE: Insomnia,"phase 1, 500 mg, n = 7",1 (14.3) n (%)
same,Treatment-emergent AE: Nausea,"phase 1, 500 mg, n = 7",5 (71.4) n (%)
same,Treatment-emergent AE: Neutropenia,"phase 1, 500 mg, n = 7",0 n (%)
same,Treatment-emergent AE: Night sweats,"phase 1, 500 mg, n = 7",1 (14.3) n (%)
same,Treatment-emergent AE: Pain in extremity,"phase 1, 500 mg, n = 7",0 n (%)
same,Treatment-emergent AE: Petechiae,"phase 1, 500 mg, n = 7",1 (14.3) n (%)
same,Treatment-emergent AE: Pyrexia,"phase 1, 500 mg, n = 7",2 (28.6) n (%)
same,Treatment-emergent AE: Skin lesion,"phase 1, 500 mg, n = 7",0 n (%)
same,Treatment-emergent AE: Thrombocytopenia,"phase 1, 500 mg, n = 7",1 (14.3) n (%)
same,Treatment-emergent AE: Upper respiratory tract infection,"phase 1, 500 mg, n = 7",0 n (%)
same,Treatment-emergent AE: Vomiting,"phase 1, 500 mg, n = 7",3 (42.9) n (%)
same,Treatment-emergent AE: Abdominal distension,"phase 1, 600 mg, n = 6",2 (33.3) n (%)
same,Treatment-emergent AE: Abdominal pain,"phase 1, 600 mg, n = 6",1 (16.7) n (%)
same,Treatment-emergent AE: Anemia,"phase 1, 600 mg, n = 6",3 (50.0) n (%)
same,Treatment-emergent AE: Any AE,"phase 1, 600 mg, n = 6",6 (100.0) n (%)
same,Treatment-emergent AE: Asthenia,"phase 1, 600 mg, n = 6",2 (33.3) n (%)
same,Treatment-emergent AE: Back pain,"phase 1, 600 mg, n = 6",0 n (%)
same,Treatment-emergent AE: Cardiac murmur,"phase 1, 600 mg, n = 6",2 (33.3) n (%)
same,Treatment-emergent AE: Chills,"phase 1, 600 mg, n = 6",1 (16.7) n (%)
same,Treatment-emergent AE: Constipation,"phase 1, 600 mg, n = 6",1 (16.7) n (%)
same,Treatment-emergent AE: Cough,"phase 1, 600 mg, n = 6",0 n (%)
same,Treatment-emergent AE: Decreased appetite,"phase 1, 600 mg, n = 6",1 (16.7) n (%)
same,Treatment-emergent AE: Dehydration,"phase 1, 600 mg, n = 6",1 (16.7) n (%)
same,Treatment-emergent AE: Diarrhea,"phase 1, 600 mg, n = 6",6 (100.0) n (%)
same,Treatment-emergent AE: Dizziness,"phase 1, 600 mg, n = 6",1 (16.7) n (%)
same,Treatment-emergent AE: Dyspnea,"phase 1, 600 mg, n = 6",3 (50.0) n (%)
same,Treatment-emergent AE: Edema peripheral,"phase 1, 600 mg, n = 6",3 (50.0) n (%)
same,Treatment-emergent AE: Epistaxis,"phase 1, 600 mg, n = 6",1 (16.7) n (%)
same,Treatment-emergent AE: Fatigue,"phase 1, 600 mg, n = 6",1 (16.7) n (%)
same,Treatment-emergent AE: Hyperbilirubinemia,"phase 1, 600 mg, n = 6",0 n (%)
same,Treatment-emergent AE: Hyperuricemia,"phase 1, 600 mg, n = 6",3 (50.0) n (%)
same,Treatment-emergent AE: Insomnia,"phase 1, 600 mg, n = 6",0 n (%)
same,Treatment-emergent AE: Nausea,"phase 1, 600 mg, n = 6",4 (66.7) n (%)
same,Treatment-emergent AE: Neutropenia,"phase 1, 600 mg, n = 6",0 n (%)
same,Treatment-emergent AE: Night sweats,"phase 1, 600 mg, n = 6",1 (16.7) n (%)
same,Treatment-emergent AE: Pain in extremity,"phase 1, 600 mg, n = 6",1 (16.7) n (%)
same,Treatment-emergent AE: Petechiae,"phase 1, 600 mg, n = 6",0 n (%)
same,Treatment-emergent AE: Pyrexia,"phase 1, 600 mg, n = 6",2 (33.3) n (%)
same,Treatment-emergent AE: Skin lesion,"phase 1, 600 mg, n = 6",0 n (%)
same,Treatment-emergent AE: Thrombocytopenia,"phase 1, 600 mg, n = 6",1 (16.7) n (%)
same,Treatment-emergent AE: Upper respiratory tract infection,"phase 1, 600 mg, n = 6",0 n (%)
same,Treatment-emergent AE: Vomiting,"phase 1, 600 mg, n = 6",3 (50.0) n (%)
same,Treatment-emergent AE: Abdominal distension,[2],9 (20.9) n (%)
same,Treatment-emergent AE: Abdominal pain,[2],6 (14.0) n (%)
same,Treatment-emergent AE: Anemia,[2],3 (7.0) n (%)
same,Treatment-emergent AE: Any AE,[2],8 (18.6) n (%)
same,Treatment-emergent AE: Asthenia,[2],6 (14.0) n (%)
same,Treatment-emergent AE: Back pain,[2],7 (16.3) n (%)
same,Treatment-emergent AE: Cardiac murmur,[2],6 (14.0) n (%)
same,Treatment-emergent AE: Chills,[2],5 (11.6) n (%)
same,Treatment-emergent AE: Constipation,[2],11 (25.6) n (%)
same,Treatment-emergent AE: Cough,[2],5 (11.6) n (%)
same,Treatment-emergent AE: Decreased appetite,[2],8 (18.6) n (%)
same,Treatment-emergent AE: Dehydration,[2],5 (11.6) n (%)
same,Treatment-emergent AE: Diarrhea,[2],28 (65.1) n (%)
same,Treatment-emergent AE: Dizziness,[2],6 (14.0) n (%)
same,Treatment-emergent AE: Dyspnea,[2],9 (20.9) n (%)
same,Treatment-emergent AE: Edema peripheral,[2],10 (23.3) n (%)
same,Treatment-emergent AE: Epistaxis,[2],7 (16.3) n (%)
same,Treatment-emergent AE: Fatigue,[2],9 (20.9) n (%)
same,Treatment-emergent AE: Hyperbilirubinemia,[2],5 (11.6) n (%)
same,Treatment-emergent AE: Hyperuricemia,[2],5 (11.6) n (%)
same,Treatment-emergent AE: Insomnia,[2],7 (16.3) n (%)
same,Treatment-emergent AE: Nausea,[2],19 (44.2) n (%)
same,Treatment-emergent AE: Neutropenia,[2],2 (4.7) n (%)
same,Treatment-emergent AE: Night sweats,[2],6 (14.0) n (%)
same,Treatment-emergent AE: Pain in extremity,[2],5 (11.6) n (%)
same,Treatment-emergent AE: Petechiae,[2],5 (11.6) n (%)
same,Treatment-emergent AE: Pyrexia,[2],9 (20.9) n (%)
same,Treatment-emergent AE: Skin lesion,[2],5 (11.6) n (%)
same,Treatment-emergent AE: Thrombocytopenia,[2],2 (4.7) n (%)
same,Treatment-emergent AE: Upper respiratory tract infection,[2],5 (11.6) n (%)
same,Treatment-emergent AE: Vomiting,[2],16 (37.2) n (%)
same,Treatment-emergent AE: Abdominal distension,[3],0 n (%)
same,Treatment-emergent AE: Abdominal pain,[3],1 (2.3) n (%)
same,Treatment-emergent AE: Anemia,[3],7 (16.3) n (%)
same,Treatment-emergent AE: Any AE,[3],35 (81.4) n (%)
same,Treatment-emergent AE: Asthenia,[3],2 (4.7) n (%)
same,Treatment-emergent AE: Back pain,[3],0 n (%)
same,Treatment-emergent AE: Cardiac murmur,[3],0 n (%)
same,Treatment-emergent AE: Chills,[3],0 n (%)
same,Treatment-emergent AE: Constipation,[3],0 n (%)
same,Treatment-emergent AE: Cough,[3],0 n (%)
same,Treatment-emergent AE: Decreased appetite,[3],0 n (%)
same,Treatment-emergent AE: Dehydration,[3],0 n (%)
same,Treatment-emergent AE: Diarrhea,[3],3 (7.0) n (%)
same,Treatment-emergent AE: Dizziness,[3],0 n (%)
same,Treatment-emergent AE: Dyspnea,[3],0 n (%)
same,Treatment-emergent AE: Edema peripheral,[3],2 (4.7) n (%)
same,Treatment-emergent AE: Epistaxis,[3],1 (2.3) n (%)
same,Treatment-emergent AE: Fatigue,[3],4 (9.3) n (%)
same,Treatment-emergent AE: Hyperbilirubinemia,[3],0 n (%)
same,Treatment-emergent AE: Hyperuricemia,[3],1 (2.3) n (%)
same,Treatment-emergent AE: Insomnia,[3],0 n (%)
same,Treatment-emergent AE: Nausea,[3],0 n (%)
same,Treatment-emergent AE: Neutropenia,[3],3 (7.0) n (%)
same,Treatment-emergent AE: Night sweats,[3],0 n (%)
same,Treatment-emergent AE: Pain in extremity,[3],0 n (%)
same,Treatment-emergent AE: Petechiae,[3],0 n (%)
same,Treatment-emergent AE: Pyrexia,[3],3 (7.0) n (%)
same,Treatment-emergent AE: Skin lesion,[3],0 n (%)
same,Treatment-emergent AE: Thrombocytopenia,[3],6 (14.0) n (%)
same,Treatment-emergent AE: Upper respiratory tract infection,[3],0 n (%)
same,Treatment-emergent AE: Vomiting,[3],0 n (%)
same,SAE Management/Outcome,"phase 1, listing per patient and SAE",Fatal; also recorded: Dose not changed; recovered/resolved with sequelae; also recorded: Drug withdrawn; recovered/resolved with sequelae; also recorded: Drug interrupted; recovered/resolved with sequelae
same,Deaths attributed to AEs,"phase 1, n = 43",Seven
same,Discontinuations because of an AE considered treatment related,"phase 1, n = 43",three
same,Dose interruptions due to AEs,"phase 1, n = 43",18 patients
same,Dose reductions due to AEs,"phase 1, n = 43",9 patients
same,Grade 3/4 anemia,"phase 1, n = 43",16.3%
same,Grade 3/4 thrombocytopenia,"phase 1, n = 43",14.0%
same,Grade 3 treatment-related AEs,"phase 1, n = 43",20.9%
same,Grade 4 treatment-related AEs,"phase 1, n = 43",4.7%
same,Patients who died during study participation,"phase 1, n = 43",32.6%
same,Patients who discontinued pacritinib because of an AE,"phase 1, n = 43",Eight
same,Patients with SAEs,"phase 1, n = 43",44.2%
same,Patients with SAEs considered treatment related,"phase 1, n = 43",9.3%
same,Treatment-related AE: diarrhea,"phase 1, n = 43",65.1%
same,Treatment-related AE: nausea,"phase 1, n = 43",34.9%
same,Treatment-related AE: thrombocytopenia,"phase 1, n = 43",11.6%
same,Treatment-related AE: vomiting,"phase 1, n = 43",23.3%

# Reference: paper PMC5146859, “Phase 1/2 study of pacritinib, a next generation JAK2/FLT3 inhibitor, in myelofibrosis or other myeloid malignancies” (Journal of Hematology & Oncology, 2016)
